Measured values published in patent publication US9120749B2, “Quinoline derivatives and MELK inhibitors containing the same” (ONCOTHERAPY SCIENCE, INC., priority 2010, dated 2015).
Structures can show the parent of a compound that is named as a salt. Where two headings read alike, the source gives them in different places.

How the values were obtained:
A549 cells = assay: Cell-based assay: anti-proliferative activity, Cell Counting Kit-8, 72 hours (A549); conditions: 72 hours
Method in brief: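 A549 cells seeded in 96-well plates and exposed to candidate inhibitors for 72 hours. Growth measured with Cell Counting Kit-8; IC50 values calculated from the dose response.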

T47D cells = assay: Cell-based assay: anti-proliferative activity, Cell Counting Kit-8, 72 hours (T47D)
Method in brief: (§1)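 IC50 values come from CCK-8 growth measurements taken 72 hours post-treatment of plated cells with test compounds. Expression of MELK across the panel was assessed through immunoblot of unfractionated lysates.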

HT-1197 cells = assay: Cell-based assay: anti-proliferative activity, Cell Counting Kit-8, 72 hours (HT-1197, negative control without MELK expression); conditions: HT1197 cells (negative control), 72 hours
Method in brief: as §1

MELK = MELK (Homo sapiens, UniProt Q14680); assay: Kinase assay: MELK activity, phosphorylation of FITC-labeled histone H3 peptide measured by IMAP fluorescence polarization; format: biochemical
MELK, sequence (Q14680 whole entry, looked up): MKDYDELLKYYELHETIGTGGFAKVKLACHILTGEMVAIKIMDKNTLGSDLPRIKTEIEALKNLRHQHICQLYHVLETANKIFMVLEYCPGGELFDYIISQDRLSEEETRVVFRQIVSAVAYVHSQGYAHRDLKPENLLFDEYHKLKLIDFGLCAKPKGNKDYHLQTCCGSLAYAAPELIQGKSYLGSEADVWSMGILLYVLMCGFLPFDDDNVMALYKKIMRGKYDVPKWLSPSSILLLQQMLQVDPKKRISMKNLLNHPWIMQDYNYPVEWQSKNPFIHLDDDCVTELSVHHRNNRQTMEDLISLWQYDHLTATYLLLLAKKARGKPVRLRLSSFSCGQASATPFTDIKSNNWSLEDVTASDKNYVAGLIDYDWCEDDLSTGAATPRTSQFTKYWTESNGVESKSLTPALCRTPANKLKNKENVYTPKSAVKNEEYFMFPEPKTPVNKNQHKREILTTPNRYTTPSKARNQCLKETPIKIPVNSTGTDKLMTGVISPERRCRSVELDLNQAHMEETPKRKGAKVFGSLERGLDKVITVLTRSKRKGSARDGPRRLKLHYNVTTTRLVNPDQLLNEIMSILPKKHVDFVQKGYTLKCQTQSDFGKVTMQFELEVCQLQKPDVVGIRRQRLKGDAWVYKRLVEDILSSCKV
Method in brief: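 Substrate is FITC-labeled histone H3 peptide. Compounds come from a 12.5 mM DMSO stock, diluted so assay DMSO is 1%. The stop step adds threefold-volume progressive binding solution, followed by 0.5 h at room temperature and an FP read.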

DU4475 cells = assay: Cell-based assay: anti-proliferative activity, Cell Counting Kit-8, 72 hours (DU4475)
[1] = read-out: IC50 (μM) (kinase assay)

| SMILES | IC50 (A549 cells; Homo sapiens, A549, 72 h) | IC50 (T47D cells; Homo sapiens, T47D, 72 h) | IC50 (HT-1197 cells; Homo sapiens, HT1197, 72 h) | IC50 (MELK; [1]) | IC50 (DU4475 cells; Homo sapiens, DU-4475, 72 h) | IC50 (MELK) | IC50 (A549 cells; hydrochloride) | IC50 (T47D cells; 72 hours, hydrochloride) | IC50 (HT-1197 cells; hydrochloride) | IC50 (MELK; hydrochloride, read-out: IC50 (μM) (kinase assay)) | IC50 (DU4475 cells; hydrochloride) |
| --- | --- | --- | --- | --- | --- | --- | --- | --- | --- | --- | --- |
| O=C(c1cnc2ccc(-c3cc(Cl)c(O)c(Cl)c3)cc2c1Nc1ccc(NC2CCCNC2)nc1)C1CC1 (centres unmarked) [Example 610, cyclopropyl(6-(3,5-dichloro-4-hydroxyphenyl)-4-(6-(piperidin-3-ylamino)pyridine-3-ylamino)quinolin-3-yl)methanone] | 0.39 µM | 0.22 µM | 10 µM | 0.0017 µM | 0.073 µM |  |  |  |  |  |  |
| NC1CCCN(c2ccc(Nc3c(C(=O)C4CC4)cnc4ccc(-c5cc(Cl)c(O)c(Cl)c5)cc34)cn2)C1 (centres unmarked) [Example 556, (4-(6-(3-aminopiperidin-1-yl)pyridin-3-ylamino)-6-(3,5-dichloro-4-hydroxyphenyl)quinolin-3-yl)(cyclopropyl)methanone] | 0.023 µM | 0.03 µM | 0.96 µM | 0.0044 µM | 0.016 µM |  |  |  |  |  |  |
| CCCC(=O)c1cnc2ccc(-c3cc(F)c(O)c(Cl)c3)cc2c1Nc1ccc(CN(C)C)cc1 [Example 537, 1-(6-(3-chloro-5-fluoro-4-hydroxyphenyl)-4-((4-((dimethylamino)methyl)phenyl)amino)quinolin-3-yl)butan-1-one] | 0.15 µM | 0.11 µM | 0.94 µM | 0.016 µM | 0.098 µM |  |  |  |  |  |  |
| NC1CCN(c2ccc(Nc3c(C(=O)C4CC4)cnc4ccc(-c5cc(F)c(O)c(Cl)c5)cc34)cn2)CC1 [Example 557, (4-(6-(4-aminopiperidin-1-yl)pyridin-3-ylamino)-6-(3-chloro-5-fluoro-4-hydroxyphenyl)quinolin-3-yl)(cyclopropyl)methanone] | 0.52 µM | 0.11 µM | 3.1 µM |  | 0.18 µM | 0.0056 µM |  |  |  |  |  |
| NC1CCN(c2ncc(Nc3c(C(=O)C4CC4)cnc4ccc(-c5cc(Cl)c(O)c(Cl)c5)cc34)cn2)CC1 [Example 566, (4-(2-(4-aminopiperidin-1-yl)pyrimidin-5-ylamino)-6-(3,5-dichloro-4-hydroxyphenyl)quinolin-3-yl)(cyclopropyl)methanone] | 0.4 µM | 0.11 µM | 2.6 µM | 0.003 µM | 0.13 µM |  |  |  |  |  |  |
| CC(=O)c1cnc2ccc(-c3cc(F)c(O)c(Cl)c3)cc2c1Nc1cnc(N2CCNCC2)nc1 [Example 594, 1-(6-(3-chloro-5-fluoro-4-hydroxyphenyl)-4-(2-(piperazin-1-yl)pyrimidin-5-ylamino)quinolin-3-yl)ethanone] | 0.063 µM | 0.025 µM | 0.66 µM | 0.0048 µM | 0.048 µM |  |  |  |  |  |  |
| O=C(c1cnc2ccc(-c3cc(Cl)c(O)c(Cl)c3)cc2c1N1CCC(C2CCNCC2)CC1)C1CC1 [Example 596, (4-(4,4′-bipiperidin-1-yl)-6-(3,5-dichloro-4-hydroxyphenyl)quinolin-3-yl)(cyclopropyl)methanone] | 1.5 µM | 0.18 µM | 5.1 µM | 0.0016 µM | 0.14 µM |  |  |  |  |  |  |
| NC1CCN(c2ncc(Nc3c(C(=O)C4CC4)cnc4ccc(-c5cc(F)c(O)c(Cl)c5)cc34)cn2)CC1 [Example 567, (4-(2-(4-aminopiperidin-1-yl)pyrimidin-5-ylamino)-6-(3-chloro-5-fluoro-4-hydroxyphenyl)quinolin-3-yl)(cyclopropyl)methanone] | 0.34 µM | 0.076 µM | 1.9 µM | 0.0083 µM | 0.18 µM |  |  |  |  |  |  |
| COc1cc(-c2ccc3ncc(C(=O)C4CC4)c(Nc4ccc(N5CCNCC5)cn4)c3c2)cc(Cl)c1O [Example 528, (6-(3-chloro-4-hydroxy-5-methoxyphenyl)-4-(5-(piperazin-1-yl)pyridin-2-ylamino)quinolin-3-yl)(cyclopropyl)methanone hydrochloride] | 1.3 µM | 1.8 µM | 4.2 µM | 0.0044 µM | 1.7 µM |  |  |  |  |  |  |
| CN(C)Cc1ccc(Nc2c(C(=O)C3CC3)cnc3cc(F)c(-c4cc(F)c(O)c(Cl)c4)cc23)cc1 [Example 541, (6-(3-Chloro-5-fluoro-4-hydroxyphenyl)-4-(4-((dimethylamino)methyl)phenylamino)-7-fluoroquinolin-3-yl)(cyclopropyl)methanone] | 0.076 µM | 0.42 µM | 1.1 µM | 0.077 µM | 0.087 µM |  |  |  |  |  |  |
| NC1CCCN(c2ccc(Nc3c(C(=O)C4CC4)cnc4ccc(-c5cc(F)c(O)c(Cl)c5)cc34)cn2)C1 (centres unmarked) [Example 562, (4-(6-(3-aminopiperidin-1-yl)pyridin-3-ylamino)-6-(3-chloro-5-fluoro-4-hydroxyphenyl)quinolin-3-yl)(cyclopropyl)methanone hydrochloride] |  |  |  |  |  |  | 0.012 µM | 0.0064 µM | 0.19 µM | 0.0017 µM | 0.0089 µM |
| NC[C@H]1CC[C@@H](Nc2c(C(=O)C3CC3)cnc3ccc(-c4cc(F)c(O)c(Cl)c4)cc23)CC1 [Example 515, (4-((1s,4s)-4-(aminomethyl)cyclohexylamino)-6-(3-chloro-5-fluoro-4-hydroxyphenyl)quinolin-3-yl)(cyclopropyl)methanone] | 0.83 µM | 0.23 µM | 3.9 µM | 0.0034 µM | 0.12 µM |  |  |  |  |  |  |
| O=C(c1cnc2ccc(-c3cc(F)c(O)c(Cl)c3)cc2c1N[C@H]1CC[C@H](CN2CC[C@@H](F)C2)CC1)C1CC1 [Example 570, (6-(3-chloro-5-fluoro-4-hydroxyphenyl)-4-((trans-4-(((R)-3-fluoropyrrolidin-1-yl)methyl)cyclohexyl)amino)quinolin-3-yl)(cyclopropyl)methanone] | 0.13 µM | 0.14 µM | 0.16 µM | 0.016 µM | 0.089 µM |  |  |  |  |  |  |
| NC1CCN(c2ccc(Nc3c(C(=O)C4CC4)cnc4ccc(-c5cc(Cl)c(O)c(Cl)c5)cc34)cn2)C1 (centres unmarked) [Example 575, (4-(6-(3-aminopyrrolidin-1-yl)pyridin-3-ylamino)-6-(3,5-dichloro-4-hydroxyphenyl)quinolin-3-yl)(cyclopropyl)methanone] | 0.068 µM | 0.028 µM | 1.2 µM | 0.0031 µM | 0.029 µM |  |  |  |  |  |  |
| CN(C)Cc1cccc(Nc2c(C(=O)C3CC3)cnc3ccc(-c4cc(Cl)c(O)c(Cl)c4)cc23)c1 [Example 624, cyclopropyl(6-(3,5-dichloro-4-hydroxyphenyl)-4-(3-((dimethylamino)methyl)phenylamino)quinolin-3-yl)methanone] | 0.089 µM | 0.55 µM | 3 µM | 0.0016 µM | 0.043 µM |  |  |  |  |  |  |
| CC(C)C(=O)c1cnc2ccc(-c3cc(F)c(O)c(Cl)c3)cc2c1N[C@H]1CC[C@H](CN(C)C)CC1 [Example 620] | 0.18 µM | 0.16 µM | 0.17 µM | 0.0066 µM | 0.095 µM |  |  |  |  |  |  |
| O=C(c1cnc2ccc(-c3cc(F)c(O)c(Cl)c3)cc2c1Nc1ccc(N2CCNCC2)cn1)C1CC1 [Example 525, (6-(3-chloro-5-fluoro-4-hydroxyphenyl)-4-(5-(piperazin-1-yl)pyridin-2-ylamino)quinolin-3-yl)(cyclopropyl)methanone] | 1.7 µM | 0.48 µM | 11 µM | 0.0048 µM | 0.46 µM |  |  |  |  |  |  |
| CN(CC#N)C[C@H]1CC[C@@H](Nc2c(C(=O)C3CC3)cnc3ccc(-c4cc(F)c(O)c(Cl)c4)cc23)CC1 [Example 524, 2-((((1R,4R)-4-(6-(3-Chloro-5-fluoro-4-hydroxyphenyl)-3-(cyclopropanecarbonyl)quinolin-4-ylamino)cyclohexyl)methyl)(methyl)amino)acetonitrile] | 0.39 µM | 0.2 µM | 1.7 µM | 0.01 µM | 0.1 µM |  |  |  |  |  |  |
| COc1cc(-c2ccc3ncc(C(=O)C4CC4)c(Nc4cnc(N5CCC(N)CC5)nc4)c3c2)cc(Cl)c1O [Example 553, (4-(2-(4-aminopiperidin-1-yl)pyrimidin-5-ylamino)-6-(3-chloro-4-hydroxy-5-methoxyphenyl)quinolin-3-yl)(cyclopropyl)methanone] | 0.39 µM | 0.12 µM | 2.1 µM | 0.0056 µM | 0.95 µM |  |  |  |  |  |  |
| COc1cc(-c2ccc3ncc(C(=O)C4CC4)c(Nc4ccc(N5CCC(N)C5)nc4)c3c2)cc(Cl)c1O (centres unmarked) [Example 568, (4-(6-(3-aminopyrrolidin-1-yl)pyridin-3-ylamino)-6-(3-chloro-4-hydroxy-5-methoxyphenyl)quinolin-3-yl)(cyclopropyl)methanone] | 0.082 µM | 0.057 µM | 0.62 µM | 0.0027 µM | 0.045 µM |  |  |  |  |  |  |
| CCCC(=O)c1cnc2ccc(-c3cc(Cl)c(O)c(OC)c3)cc2c1N[C@H]1CC[C@H](N)CC1 [Example 529, 1-(4-((trans-4-aminocyclohexyl)amino)-6-(3-chloro-4-hydroxy-5-methoxyphenyl)quinolin-3-yl)butan-1-one] | 0.15 µM | 0.081 µM | 1.5 µM | 0.0038 µM | 0.076 µM |  |  |  |  |  |  |
| CN1CCC(n2cc(Nc3c(C(=O)C4CC4)cnc4ccc(-c5cc(Cl)c(O)c(Cl)c5)cc34)cn2)CC1 [Example 593, Cyclopropyl(6-(3,5-dichloro-4-hydroxyphenyl)-4-(1-(1-methylpiperidin-4-yl)-1H-pyrazol-4-ylamino)quinolin-3-yl)methanone] | 0.094 µM | 0.32 µM | 4.3 µM | 0.0013 µM | 0.044 µM |  |  |  |  |  |  |
